Assay in series [1]: not given
The source holds these as a separate data set.

Series [2] addresses human SGLT2 (Homo sapiens (Human), UniProt P31639). The series is described as follows: Inhibitory effects on human SGLT2 activities (14C-AMG uptake in CHO cells expressing hSGLT2). The format is cell-based. The note with it: CHO cells stably expressing hSGLT2, 37° C., 2 h. The protocol:
Human SGLT2 (hSGLT2) gene was amplified by PCR from cDNA-Human Adult Normal Tissue Kidney (Invitrogen). The hSGLT2 sequence was cloned into pcDNA3.1(+) for mammalian expression and were stably transfected into chinese hamster ovary (CHO) cells. SGLT2-expressing clones were selected based on resistance to G418 antibiotic (Geneticin) and activity in the ^14C-α-methyl-D-glucopyranoside (^14C-AMG) uptake assay.
For sodium-dependent glucose transport assay, cells expressing hSGLT2 were seeded into a 96-well culture plate at a density of 5×10^4 cells/well in RPMI medium 1640 containing 10% fetal bovine serum. The cells were used 1 day after plating. They were incubated in pretreatment buffer (10 mM HEPES, 5 mM Tris, 140 mM choline chloride, 2 mM KCl, 1 mM CaCl2, and 1 mM MgCl2, pH 7.4) at 37° C. for 10 min. They were then incubated in uptake buffer (10 mM HEPES, 5 mM Tris, 140 mM NaCl, 2 mM KCl, 1 mM CaCl2, 1 mM MgCl2, and 1 mM ^14C-nonlabeled AMG pH 7.4) containing ^14C-labeled AMG (8 μM) and the inventive compound or dimethyl sulfoxide (DMSO) vehicle at 37° C. for 2 h. Cells were washed twice with washing buffer (pretreatment buffer containing 10 mM AMG at room temperature) and then the radioactivity was measured using a liquid scintillation counter. IC50 was determined by nonlinear regression analysis using GraphPad PRISM [Katsuno, K. et al. J. Pharmacol. Exp. Ther. 2007, 320, 323-330; Han, S. et al. Diabetes, 2008, 57, 1723-1729].

Read-outs that look alike come from different tables or passages of the source.

Sequence of human SGLT2 (P31639 whole entry): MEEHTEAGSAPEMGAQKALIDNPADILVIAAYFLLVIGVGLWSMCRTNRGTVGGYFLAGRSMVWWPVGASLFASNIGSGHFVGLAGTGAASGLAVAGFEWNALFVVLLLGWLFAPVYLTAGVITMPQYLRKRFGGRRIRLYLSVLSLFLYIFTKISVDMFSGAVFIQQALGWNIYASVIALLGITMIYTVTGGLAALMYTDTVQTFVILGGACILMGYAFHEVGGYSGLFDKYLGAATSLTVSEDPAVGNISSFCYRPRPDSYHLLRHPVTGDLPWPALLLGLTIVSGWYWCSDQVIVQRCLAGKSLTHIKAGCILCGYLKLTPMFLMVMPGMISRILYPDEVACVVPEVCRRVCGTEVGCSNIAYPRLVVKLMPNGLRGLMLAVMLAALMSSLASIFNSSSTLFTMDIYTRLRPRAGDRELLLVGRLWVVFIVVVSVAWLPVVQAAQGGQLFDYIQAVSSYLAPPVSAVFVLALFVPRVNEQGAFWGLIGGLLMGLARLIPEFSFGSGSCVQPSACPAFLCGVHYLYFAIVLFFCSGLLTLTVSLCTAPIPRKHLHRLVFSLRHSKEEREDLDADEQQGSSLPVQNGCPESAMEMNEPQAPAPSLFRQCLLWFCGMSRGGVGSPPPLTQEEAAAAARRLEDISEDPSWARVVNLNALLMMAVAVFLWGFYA

The molecule `CCOc1ccc(Cc2cc3c(cc2Cl)OCC=CCOC[C@H]2O[C@@H]3[C@H](OC(C)=O)[C@@H](OC(C)=O)[C@@H]2OC(C)=O)cc1` showed a ring closure, yield of all isomers (from C=CCOC[C@H]1O[C@@H](c2cc(Cc3ccc(OCC)cc3)c(Cl)cc2OCC=C)[C@H](OC(C)=O)[C@@H](OC(C)=O)[C@@H]1OC(C)=O, rcm bond, Grubbs 2nd generation catalyst, dichloromethane, 5.0 mM, 60.0 °C, 72.0 h) of 23%. The same molecule showed a ring closure, isolated yield in series [1] (from C=CCOC[C@H]1O[C@@H](c2cc(Cc3ccc(OCC)cc3)c(Cl)cc2OCC=C)[C@H](OC(C)=O)[C@@H](OC(C)=O)[C@@H]1OC(C)=O, rcm bond, 12-membered ring, Grubbs II (20 mol%), DCM, 5.0 mM, 60.0 °C) of 23%.

For `CCOc1ccc(Cc2cc3c(cc2Cl)OCC=CCOC[C@H]2O[C@@H]3[C@H](OCc3ccccc3)[C@@H](OCc3ccccc3)[C@@H]2OCc2ccccc2)cc1`, the ring closure, yield of all isomers (from C=CCOC[C@H]1O[C@@H](c2cc(Cc3ccc(OCC)cc3)c(Cl)cc2OCC=C)[C@H](OCc2ccccc2)[C@@H](OCc2ccccc2)[C@@H]1OCc1ccccc1, rcm bond, Grubbs 2nd generation catalyst, dichloromethane, 9.6 mM, 60.0 °C, 16.0 h) was determined as 26%. Also, the ring closure, isolated yield in series [1] (from C=CCOC[C@H]1O[C@@H](c2cc(Cc3ccc(OCC)cc3)c(Cl)cc2OCC=C)[C@H](OCc2ccccc2)[C@@H](OCc2ccccc2)[C@@H]1OCc1ccccc1, rcm bond, 12-membered ring, Grubbs II (11 mol%), DCM, 9.6 mM, 60.0 °C) is 26%.

In the case of `CCOc1ccc(Cc2cc3c(cc2Cl)OCCCCCOC[C@H]2O[C@@H]3[C@H](OCc3ccccc3)[C@@H](OCc3ccccc3)[C@@H]2OCc2ccccc2)cc1`, the ring closure, yield of all isomers (from CCOc1ccc(Cc2cc([C@@H]3O[C@H](COCCCCCI)[C@@H](OCc4ccccc4)[C@H](OCc4ccccc4)[C@H]3OCc3ccccc3)c(O)cc2Cl)cc1, ether bond, potassium carbonate / 18-crown-6, toluene, 10.0 mM, 25.0 °C, 16.0 h) is 64%. Moreover, in series [1] (from CCOc1ccc(Cc2cc([C@@H]3O[C@H](COCCCCCI)[C@@H](OCc4ccccc4)[C@H](OCc4ccccc4)[C@H]3OCc3ccccc3)c(O)cc2Cl)cc1, ether bond, 13-membered ring, K2CO3/18-crown-6, toluene, 10.0 mM, 25.0 °C), the ring closure, isolated yield is 64%.

`CCOc1ccc(Cc2cc3c(cc2Cl)OC[C@H]2C[C@H]2COC[C@H]2O[C@@H]3[C@H](OCc3ccccc3)[C@@H](OCc3ccccc3)[C@@H]2OCc2ccccc2)cc1` displayed a ring closure, yield of all isomers (from CCOc1ccc(Cc2cc([C@@H]3O[C@H](CO)[C@@H](OCc4ccccc4)[C@H](OCc4ccccc4)[C@H]3OCc3ccccc3)c(OC[C@H]3C[C@H]3CI)cc2Cl)cc1, ether bond, sodium hydride, N,N-dimethylformamide, 47.0 mM, 25.0 °C, 3.0 h) of 63%. Also, the ring closure, isolated yield in series [1] (from CCOc1ccc(Cc2cc([C@@H]3O[C@H](CO)[C@@H](OCc4ccccc4)[C@H](OCc4ccccc4)[C@H]3OCc3ccccc3)c(OC[C@H]3C[C@H]3CI)cc2Cl)cc1, ether bond, 12-membered ring, NaH, DMF, 47.0 mM, 25.0 °C) came to 63%.

Take `CCOc1ccc(Cc2cc3c(cc2Cl)OC/C=C\COC[C@H]2O[C@@H]3[C@H](O)[C@@H](O)[C@@H]2O)cc1` [Example 1, (8R,9S,10R,11R,12S)-15-Chloro-14-(4-ethoxybenzyl)-2,5,7,8,9,10,11,12-octahydro-2H-8,12-epoxybenzo[g][1,6]dioxacyclotetradecine-9,10,11-triol]: in series [2], the IC50 was found to be 0.974 nM. This counts as sub-nanomolar.

As for `CCOc1ccc(Cc2cc3c(cc2Cl)OCCCCOC[C@H]2O[C@@H]3[C@H](O)[C@@H](O)[C@@H]2O)cc1` [Example 2, (8R,9S,10R,11R,12S)-15-Chloro-14-(4-ethoxybenzyl)-2,3,4,5,7,8,9,10,11,12-decahydro-2H-8,12-epoxybenzo[g][1,6]dioxacyclotetradecine-9,10,11-triol], in series [2], half-maximal inhibition (IC50) was put at 2.27 nM.

With `CCOc1ccc(Cc2cc3c(cc2Cl)OCCCCCOC[C@H]2O[C@@H]3[C@H](O)[C@@H](O)[C@@H]2O)cc1` [Example 3, (9R,10S,11R,12R,13S)-16-Chloro-15-(4-ethoxybenzyl)-3,4,5,6,8,9,10,11,12,13-decahydro-2H-9,13-epoxybenzo[h][1,7]dioxacyclopentadecine-10,11,12-triol], in series [2], the IC50 was 0.899 nM.

On to `CCOc1ccc(Cc2cc3c(cc2Cl)OCCCCCCOC[C@H]2O[C@@H]3[C@H](O)[C@@H](O)[C@@H]2O)cc1` [Example 6, (10R,11S,12R,13R,14S)-17-Chloro-16-(4-ethoxybenzyl)-2,3,4,5,6,7,9,10,11,12,13,14-dodecahydro-10,14-epoxybenzo[i][1,8]dioxacyclohexadecine-11,12,13-triol], for which 3.63 nM corresponded to half-maximal inhibition in series [2] (IC50).

In turn, `CCc1ccc(Cc2cc3c(cc2Cl)OCCCCOC[C@H]2O[C@@H]3[C@H](O)[C@@H](O)[C@@H]2O)cc1` [Example 8, (8R,9S,10R,11R,12S)-15-Chloro-14-(4-ethylbenzyl)-2,3,4,5,7,8,9,10,11,12-decahydro-8,12-epoxybenzo[g][1,6]dioxacyclotetradecine-9,10,11-triol] came in with an IC50 in series [2] of 1.4 nM.

Regarding `CCc1ccc(Cc2cc3c(cc2Cl)OCCCCCOC[C@H]2O[C@@H]3[C@H](O)[C@@H](O)[C@@H]2O)cc1` [Example 9, (9R,10S,11R,12R,13S)-16-Chloro-15-(4-ethylbenzyl)-3,4,5,6,8,9,10,11,12,13-decahydro-2H-9,13-epoxybenzo[h][1,7]dioxacyclopentadecine-10,11,12-triol], in series [2], the IC50 was found to be 1.38 nM.

In turn, `CCc1ccc(Cc2cc3c(cc2Cl)OCCCCCCOC[C@H]2O[C@@H]3[C@H](O)[C@@H](O)[C@@H]2O)cc1` [Example 10, (10R,11S,12R,13R,14S)-17-Chloro-16-(4-ethylbenzyl)-2,3,4,5,6,7,9,10,11,12,13,14-dodecahydro-10,14-epoxybenzo[i][1,8]dioxacyclohexadecine-11,12,13-triol] registered an IC50 in series [2] of 1.4 nM.

In series [2], `CSc1ccc(Cc2cc3c(cc2Cl)OCCCCOC[C@H]2O[C@@H]3[C@H](O)[C@@H](O)[C@@H]2O)cc1` [Example 11, (8R,9S,10R,11R,12S)-15-Chloro-14-(4-(methylthio)benzyl)-2,3,4,5,7,8,9,10,11,12-decahydro-8,12-epoxybenzo[g][1,6]dioxacyclotetradecine-9,10,11-triol] yielded an IC50 of 1.35 nM.

`CSc1ccc(Cc2cc3c(cc2Cl)OCCCCCOC[C@H]2O[C@@H]3[C@H](O)[C@@H](O)[C@@H]2O)cc1` [Example 12, (9R,10S,11R,12R,13S)-16-Chloro-15-(4-(methylthio)benzyl)-3,4,5,6,8,9,10,11,12,13-decahydro-2H-9,13-epoxybenzo[h][1,7]dioxacyclopentadecine-10,11,12-triol] displayed a half-inhibitory concentration (IC50) in series [2] of 0.778 nM.

Consider `O[C@@H]1[C@@H](O)[C@H]2O[C@H](COCCCCOc3cc(Cl)c(Cc4ccc5c(c4)OCCO5)cc32)[C@H]1O` [Example 13, (8R,9S,10R,11R,12S)-15-Chloro-14-((2,3-dihydrobenzo[b][1,4]dioxin-6-yl)-methyl)-2,3,4,5,7,8,9,10,11,12-decahydro-8,12-epoxybenzo[g][1,6]dioxacyclotetradecine-9,10,11-triol], for which the IC50 in series [2] worked out at 3.65 nM.

In turn, `O[C@@H]1[C@@H](O)[C@H]2O[C@H](COCCCCCOc3cc(Cl)c(Cc4ccc5c(c4)OCCO5)cc32)[C@H]1O` [Example 14, (9R,10S,11R,12R,13S)-16-Chloro-15-((2,3-dihydrobenzo[b][1,4]dioxin-6-yl)-methyl)-3,4,5,6,8,9,10,11,12,13-decahydro-2H-9,13-epoxybenzo[h][1,7]dioxacyclopentadecine-10,11,12-triol] showed an IC50 in series [2] of 1.38 nM.

In series [2], `CCOc1ccc(Cc2cc3c(cc2Cl)OC[C@H]2C[C@H]2COC[C@H]2O[C@@H]3[C@H](O)[C@@H](O)[C@@H]2O)cc1` [Example 15, (4R,5S,6R,7R,8S)-11-Chloro-10-(4-ethoxybenzyl)-(1aR,14aS)-1a,2,4,5,6,7,8,9,10-octahydro-1H-4,8-epoxybenzo[g]cyclopropa[c][1,6]dioxacyclotetradecine-5,6,7-triol] showed an IC50 of 2.3 nM.

Take `CCOc1ccc(Cc2cc3c(cc2Cl)OC[C@@H]2C[C@@H]2COC[C@H]2O[C@@H]3[C@H](O)[C@@H](O)[C@@H]2O)cc1` [Example 16, (4R,5S,6R,7R,8S)-11-Chloro-10-(4-ethoxybenzyl)-(1aS,14aR)-1a,2,4,5,6,7,8,9,10-octahydro-1H-4,8-epoxybenzo[g]cyclopropa[c][1,6]dioxacyclotetradecine-5,6,7-triol]: the IC50 in series [2] stood at 14 nM. Against the preceding molecule, the IC50 is about 6.1-fold higher.

These data come from US8921412B2, “C-aryl ansa SGLT2 inhibitors” (Green Cross Corporation, priority 2011, dated 2014).
